For assay [1], the target named is T1, GlgC (Synechocystis sp. PCC 6803, UniProt P52415).
T1 construct: shorter variant lacking first 10 residues of P52414, starts VKRVLAIILGG (primer 3); N-terminal His-tag (pET28a), E. coli Rosetta-gami (DE3); active as tetramer
T1 sequence (P52415 11-439): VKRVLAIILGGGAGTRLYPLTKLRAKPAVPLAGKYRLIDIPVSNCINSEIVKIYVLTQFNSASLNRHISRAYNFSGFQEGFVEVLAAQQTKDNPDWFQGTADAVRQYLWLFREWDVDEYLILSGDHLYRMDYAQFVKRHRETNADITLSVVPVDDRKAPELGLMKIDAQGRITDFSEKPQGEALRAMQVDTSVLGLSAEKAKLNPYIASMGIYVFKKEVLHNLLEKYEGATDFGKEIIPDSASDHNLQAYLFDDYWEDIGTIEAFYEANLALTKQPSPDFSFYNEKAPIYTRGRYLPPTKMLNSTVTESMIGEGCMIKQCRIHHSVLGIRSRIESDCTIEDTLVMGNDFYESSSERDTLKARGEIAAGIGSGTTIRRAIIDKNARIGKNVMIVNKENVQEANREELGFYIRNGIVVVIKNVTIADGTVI
Description: continuous GlgC-GlgA1 / pyruvate kinase / LDH coupled assay, A340. The format is biochemical.

Assay [2] concerns the target T1, GlgC. The description is as above. The format is biochemical. To be noted: read-out: 3-PGA (mM) / 0.00.

Like-named read-outs stand apart in the source and are kept apart here.

A word on the EC50: it is the concentration needed to bring the measured effect to its halfway point. The low end stands for higher potency in that assay, the high end for lower potency in that assay. As for `O=C(O)[C@H](O)COP(=O)(O)O` [3-PGA], the EC50 on GlgC [1] was 430 µM. At GlgC [1] (activator, no 3-PGA, 0.25 mM Glc-1P, 2 mM ATP, 12 mM MgCl2, pH 8.0, 30 °C), `O=P(O)(O)OC[C@H]1OC(O)(CO)[C@@H](O)[C@@H]1O` (stereo partly drawn) [Fru-6P] came in with an EC50 of 2300 µM. In other words, the millimolar range. For the molecule `O=P(O)(O)O` [Pi], the IC50 at GlgC [2] came to 0.42 mM.

These data come from PMC11839907, “Deciphering the tight metabolite‐level regulation of glucose‐1‐phosphate adenylyltransferase (GlgC) for glycogen synthesis in cyanobacteria” (The Febs Journal, 2024).
